# No end group written: not given here.
# Columns and labels:
# IL-17A and IL-17F = assay: Inhibition of IL-17 family members; conditions: no test described
# γc-cytokines = assay: Target cytokine spectrum within the γc-family; assay type: cell-based
# IL-6 = assay: T1165 cell proliferation assay, IL-6; assay type: cell-based
# Experimental: CTLL2 cells are cultured in the presence of 5 u/ml and 10 u/ml of IL-2 (FIG. 10A) and 2.5 ng/ml and 5 ng/ml of IL-15 (FIG. 10B) in the presence of increasing concentration of BNZ132-PEG-130. T1165 cells are cultured with 0.1 ng/ml of IL-6 (FIG. 10C) and increasing concentration of BNZ132-PEG-130. […] BNZ132-1 was conjugated to BNZ130 via a PEG24 linker. The name of the bi-antagonist peptide is BNZ132-PEG-130. FIG. 10A and FIG. 10B show the results of BNZ132-PEG-130 in IL-2 (FIG. 10A) and IL-15 (FIG. 10B) CTLL2 proliferation assay. Cells were washed and incubated with IL-2 (5 and 10 units/ml), IL-15 (2.5 and 5 ng/ml) in the presence or absence of BNZ132-PEG-130 (0.1-10 μM). Cells were then pulsed with the WST-1 reagent to measure the proliferative response for the next 6 hr (OD450). […] Cells are washed and incubated with IL-6 (0.1 ng/ml) in the presence or absence of BNZ132-PEG-130 (0.1-10 μM) for 24 hours. Cells were then pulsed with WST-1 reagent for the following 6 hr to measure OD450. The BNZ130-1 polypeptide as presented in Table 2, above, is tested for its activity in inhibiting IL-6 activity. T1165 cells that are dependent on human or mouse IL-6 for their growth in vitro are selected. The cell line is cultured in the absence of IL-6, In the presence of IL-6, in the presence of BNZ130-1, and in the presence of IL-6 and BNZ130-1.
substance,measurement,setting,value
BNZ17-1: inhibitory polypeptide SEQ ID NO: 144 of IL-17A and IL-17F target region fragments (Table 7) (YSRSTSPWRYHRDRDPNRYPSDLYHAKC),specific inhibition within the IL-17 family,IL-17A and IL-17F,specifically inhibits IL-17A and IL-17F to the exclusion of the remaining family members
"BNZ gamma: polypeptide SEQ ID NO: 130 (Table 6) of IL-15, IL-2 and IL-9 D-helix fragments; probably the same as BNZ132-1 (IKEFLQSFIHIVQSIINT)",γc-cytokines not inhibited,"γc-cytokines; IL-4, IL-7 and IL-21",does not exhibit inhibitory activity
same,γc-cytokines inhibited,"γc-cytokines; summary statements, BNZ132-2 and -3 data not shown","inhibitory activity against all of IL-2, IL-15 and IL-9"
LTHLIERSSRAVLQSLLRASRQ [BNZ130-1],antagonistic activity on T1165 proliferation in the presence of IL-6,"IL-6; Example 11, T1165 cells dependent on IL-6",dose-dependent antagonistic activity
same,effect on T1165 cell survival,"IL-6; Example 11, with or without IL-6",does not affect T1165 survival
